Assay results as given in publication PMC7497692 (Investigational New Drugs, 2020).
Like-named read-outs stand apart in the source and are kept apart here.

Legend:
[1] = Oral and IV tracer PK and absolute bioavailability (part B); assay type: in vivo, human healthy male volunteers; conditions: for bioavailability: 500 mg; for tlag / tmax: median (min–max)
Method: Participants were hospitalized from day 1 to day 7 of the study, and further assessed on days 9, 11, and 14 (study end).
In brief, the isotopically labeled internal standard [^2H]-MSC2156119A was added to 20 μL K2-ethylenediaminetetraacetic acid (EDTA) plasma. […] Samples were centrifuged and 10 μL aliquots of the supernatant were injected onto an Acquity Charged Surface Hybrid™ (CSH) C18 column (2.1 × 50 mm; […]; Waters, Milford, Massachusetts, USA). Separation was carried out using a mobile phase gradient (eluent A: water/formic acid [100 + 1, v/v]; eluent B: acetonitrile/formic acid [100 + 1, v/v]) with a flow rate of 0.6 mL/min. […] The lower limit of quantification (LLOQ) was 5.00 ng/mL, and the calibration standard responses were linear over the range between 5.00 and 2500 ng/mL using a weighted (1/x^2) linear regression.
The accelerator mass spectrometry (AMS) analysis of [^14C]-tepotinib in plasma samples in part B of the trial was performed by Eckert & Ziegler Vitalea Science (Davis, California, USA) using a validated method that involves isolation of the analyte by ultra-high-performance liquid chromatography (UPLC) fractionation, followed by the quantification of the ^14C content in collected fractions using AMS [26]. […] Following protein precipitation and further chemical steps, 50 μL of the reconstituted extracts were injected onto a Waters Acquity UPLC instrument equipped with a CSH fluoro-phenyl analytical column (3.0 × 100 mm; 1.7 μm; Waters, Milford, Massachusetts, USA) and an ethylene bridged hybrid C18 (2.1 × 5 mm; 1.7 μm; Waters, Milford, Massachusetts, USA) pre-column. Separation of [^14C]-tepotinib from potentially interfering metabolites or degradants that may have been present in the study samples was carried out using a mobile phase gradient (eluent A: 5 mM ammonium acetate in water; eluent B: acetonitrile) with a flow rate of 0.75 mL/min. […] Samples were then introduced into the BioMICADAS AMS instrument (PSI/ETH, Zurich, Switzerland). The LLOQ was 0.0883 pg/mL.
The maximum plasma concentration (Cmax) and time to reach maximum concentration (tmax) were derived directly from the plasma concentration–time data. Lag time (tlag) was the time prior to the first measurable (non-zero) concentration. The area under the plasma concentration–time curve from 0 to t (last measurable concentration; AUC0–t) was calculated using a mixed log–linear trapezoidal method. Area under the plasma concentration–time curve until the last sampling time (AUCall), which corresponds to AUC0–240 h within the observation period, was used for metabolite calculations. Amounts excreted in urine, feces, and total (urine + feces) were calculated as the sum of amounts (concentration multiplied by volume) for each collection from time 0 to time t. The terminal rate constant (λz) was used to estimate the terminal half-life (t½) (ln 2/λz), and the area under the concentration–time curve from time 0 to infinity (AUC0–∞). Total body clearance (CL) and apparent body clearance (CL/f) were determined by dose/AUC0–∞, and total volume of distribution (Vz) and apparent volume of distribution (Vz/f) were calculated by dose/(AUC0–∞*λz) after IV and oral administration, respectively. Volume of distribution of the central compartment (Vc) was derived by dividing the dose by the initial drug plasma concentration after IV administration. Absolute bioavailability was calculated as F = (AUCoral/doseoral)/(AUCIV/doseIV) × 100. The ratios (%) AUCtepotinib or metabolite/AUCtotal radioactivity were calculated as a percentage of the molar AUCs.

[2] = set-up: method as in printed; conditions: preclinical results, bile-canaliculated rats, [14C]-tepotinib; ref not given; cited from earlier work
[3] = set-up: method as in PMID 31822497; conditions: patients with solid tumors; cited from earlier work
[4] = Safety assessment (TEAEs, NCI-CTCAE v4.0); assay type: in vivo, human healthy male volunteers
Method: Treatment-emergent adverse events (TEAEs), changes in laboratory tests, ECG, vital signs, and physical examinations were assessed and graded using the National Cancer Institute Common Terminology Criteria for Adverse Events (NCI-CTCAE) version 4.0. All safety endpoints across both parts of the study were analyzed descriptively.

[5] = cited from earlier work
[6] = single oral 500 mg tablet, geometric mean (geometric CV%), min–max
[7] = single oral 500 mg tablet, listed as tepotinib

Q: Which “absolute bioavailability, inter-individual variability (geometric CV)” value ([1]; 500 mg tablet vs IV tracer, n=6) does the source give for `CN1CCC(COc2cnc(-c3cccc(Cn4nc(-c5cccc(C#N)c5)ccc4=O)c3)nc2)CC1` [Tepotinib] here?
A: The value was 10.8%.

Q: What about the Vc ([1]; IV tracer, geometric mean (geometric CV%), min–max) of the same compound?
A: Its Vc is 34.6 L.

Q: And the t½ ([1]; IV tracer, geometric mean (geometric CV%), min–max, plasma)?
A: Its t½ is 31.2 h.

Q: And the bioavailability ([1]; male, human, in vivo, geometric mean, 500 mg phase II tablet formulation vs IV tracer, n=6, read-out: absolute bioavailability)?
A: Its bioavailability is 72%.

Q: And the bioavailability ([1]; male, human, in vivo, range, 500 mg tablet vs IV tracer, n=6, read-out: absolute bioavailability, range)?
A: Its bioavailability is 62 to 81%.

Q: What about the clearance ([1]; male, human, in vivo, IV tracer, geometric mean (geometric CV%), min–max) of the same compound?
A: Its clearance is 213 mL/min.

Q: And the Vd ([1]; male, human, in vivo, IV tracer, geometric mean (geometric CV%), min–max, read-out: Vz)?
A: The Vd was 574 L.

Q: What about the Vd/F ([1]; male, human, in vivo, single oral 500 mg tablet, geometric mean (geometric CV%), min–max, read-out: Vz/f) of the same compound?
A: The Vd/F was 726 L.

Q: What about the half-life ([1]; male, human, in vivo, summary statement in the discussion) of the same compound?
A: The half-life was 30 h.

Q: What about the CL/f [1, 6] of the same compound?
A: The CL/f was 17.8 L/h.

Q: What about the t½ [1, 6] of the same compound?
A: The t½ was 28.3 h.

Q: And the tlag ([1]; single oral 500 mg tablet)?
A: Its tlag is 0.52 (0.25–2.0) Hours.

Q: And the tmax ([1]; single oral 500 mg tablet)?
A: The tmax was 10.0 (3.0–10.0) Hours.

Q: What about the tlag [1, 7] of the same compound?
A: The tlag was 0.5 h.

Q: What about the tmax [1, 7] of the same compound?
A: Its tmax is 10 h.

Q: And the “biliary excretion of radioactivity” value [2]?
A: Its value is “a predominant fraction of radioactivity is excreted unchanged via the bile”.

Q: And the “maximum tolerated dose (not reached at doses administered)” value [3]?
A: Its value is over 1400 mg/day.

Q: And the “number of TEAEs of grade one severity” value ([4]; NCI-CTCAE, of 19 TEAEs)?
A: The value was 17.

Q: What about the “deaths, serious or other significant adverse events” value ([4]; both parts) of the same compound?
A: Its value is “neither deaths, serious adverse events, nor other significant adverse events were reported”.

Q: What about the “volunteers who experienced TEAEs” value ([4]; both parts, single 500 mg dose) of the same compound?
A: The value was 75%.

Q: And the “healthy volunteers who experienced TEAEs” value ([4]; both parts, single oral 500 mg)?
A: Its value is “Nine of 12”.

Q: And the “number of TEAEs” value ([4]; in nine of 12 volunteers)?
A: The value was 19.

Q: And the “number of TEAEs judged treatment related” value ([4]; of 19 TEAEs)?
A: The value was “Eight”.

Q: And the tolerability ([4]; single oral dose of 500 mg, healthy volunteers)?
A: Its tolerability is “well tolerated”.

Q: What about the “main binding partners in plasma” value [5] of the same compound?
A: Its value is “human serum albumin and α-acid glycoprotein”.

Q: And the “unbound fraction of tepotinib in human plasma” value ([5]; in vitro, concentration range 0.3–10 μM)?
A: Its value is 1.6–3.4%.
